Assay results taken from US12213959B2, “Use of 3-O-sulfamoyloxy-7β-methyl-d-homo-6-oxaestra-1,3,5(10),8(9)-tetraen-17a-one to treat breast cancer” (priority 2018, dated 2025).
Several values for one entry are separate records, joined by “and”; a condition that tells them apart may be missing. Equal entries are not always repeated.

Tests used:
[1] = system: MCF-7 human cells culture (breast adenocarcinoma); test: Proliferative activity of MCF-7 cells; assay type: cell-based; details: 20 μg/ml
Method: (§1) The study analysis was carried out on an passaged MCF-7 human cells culture culture (breast adenocarcinoma). Normal human dermal fibroblasts (HDF) of early passages were used as a negative control.
(§2) The cells were cultivated in Carrel vials in DMEM/F12 medium (Biolot) with 1.0% of antibiotic-free fetal bovine embryonic serum (Biolot) added in the 5% CO2 atmosphere, at 37° C.
(§3) The cells were seeded on Carrel vials at 50×10^4 cells per flask. To study the proliferative activity of the cells under conditions of sulfatase inhibition, 24 hours after seeding the culture medium […], and then these tumor cell lines were incubated for various periods of time (24 to 72 hrs). The inhibitor was dissolved in DMSO. […] To exclude the cytotoxic effect of DMSO, a control sample comprising DMSO without sulfatase inhibitor was prepared.
(§4) To exclude nonspecific detrimental effects of the compounds, normal human skin fibroblasts were used. Then the cells were detached with the versene-trypsin solution (Biolot), plated onto Carrel vials containing a fresh complete culture medium. The cells were counted when untreated control cells reached the maximum cell density per unit of surface area of a culture flask (monolayer), and their number was set as 100%. The proliferative activity of all of the studied cell cultures exposed to sulfatase inhibitors was determined in triplicate.

[2] = Body weight and tolerability during the antitumour study
Method: The study medicament was administered i.g. using a metal atraumatic gavage (with the procedure corresponds to the oral route of administration in clinical settings). […] Ex tempore solutions of the medicament for administration were prepared in olive oil (refined olive oil supplemented with unrefined extra virgin olive oil available under Global Village “Clasico” trademark, lot L:183351116, expiry date 26.04.2020, BAIEO, Spain). The administered volume was 0.1 ml per 10 g of a mouse body weight (0.2 ml of a ready-to-use formulation for a mouse of 20 g). The medicament administration was started 24 hours after the randomization. Duration of the administration course was 27-28 days.
This dose corresponds to a human daily dose of 20 mg/kg.
The evaluation criteria included the clinical observation data, animals body weights, time of death (if applicable), tumor growth over time, pathomorphological examination data (verification of a neoplasm during autopsy, assessment of toxic effects by macroscopic presentation of changes in the internal organs).
The animals body weights were recorded before the first administration of the medicaments and then twice per week using a verified high-speed electronic laboratory balance Ohaus Scout Pro (USA) with a maximum load of 2000 g and a measurement pitch of 0.1 g.

[3] = Acute oral toxicity, OECD 423 test; assay type: in vivo; details: for Body weight of individual mice: in g (unit assumed)
Method: 12 female mice were used in the experiment.
The dosage form for the administration was prepared ex tempore.
No deaths were detected either.
Further the observations were made once per day.
The medicament was administered in 2 steps with a break of 3 hours in a volume of 0.1 ml per 10 g of a body weight per step at the concentration of […], because the suspension in oil is thicker at higher concentrations and precludes the medicament to be administered through a gavage. […] Regardless of the group the width of the palpebral fissure of the animals was almost unchanged during the entire observation period. No pathological discharges from the eyes were detected. The nose was pink, moderately moist without pathological discharges. The fur of all mice was neat and shiny without bald spots. A 1% decrease of the animals body weight was registered on Day 2 and a 6% weight decrease on Day 7 from the initial weight (Table 3).

[4] = system: Normal human dermal fibroblasts (HDF); test: Proliferative activity of normal human skin fibroblasts (negative control); assay type: cell-based; details: 20 μg/ml
Method: as §1, §2, §3, §4

[5] = 300 mg/kg, Day 1 (before administration)
[6] = 2000 mg/kg, Day 1 (before administration)

## C[C@H]1Oc2cc(OS(N)(=O)=O)ccc2C2=C1[C@@H]1CCCC(=O)[C@@]1(C)CC2 [medicament, 3-O-sulfamoyloxy-7β-methyl-O-homo-6-oxaestra-1,3,5(10),8(9)-tetraen]
[1]
  proliferation of MCF-7 tumour cells: completely blocks
[2]; end of the experiment
  signs of toxic damage to the internal organs at autopsy: no specific signs of toxic damage to the internal organs
[2]; mouse, in vivo
  clinical signs of toxicity: no clinical signs of toxicity being observed
[3]; 300 mg/kg i.g., entire observation period
  visual signs of intoxication: None of the animals exhibited visual signs of intoxication
[3]; [5]
  Average body weight: 27.4 g
  Body weight of individual mice: 26.4 and 29.6 and 26.0 and 27.0 and 28.0 and 27.5
[3]; 300 mg/kg, Day 2
  Average body weight: 27.1 g
  Average body weight, % from baseline: −1%
  average body weight decrease: 1%
  Body weight of individual mice: 26.8 and 24.2 and 26.5 and 25.2 and 27.3 and 27.6
[3]; 300 mg/kg, Day 7
  Average body weight: 27.6 g
  Average body weight, % from baseline: 1%
  Body weight of individual mice: 27.0 and 29.4 and 27.4 and 25.6 and 28.2 and 28.0
[3]; 300 mg/kg, Day 14
  Average body weight: 28.1 g
  Average body weight, % from baseline: 2%
  Body weight of individual mice: 27.0 and 29.8 and 29.3 and 26.0 and 27.9 and 28.4
[3]; 2000 mg/kg i.g.
  clinical signs of intoxication: No clinical signs of intoxication were observed
[3]; [6]
  Average body weight: 26.2 g
  Body weight of individual mice: 28.4 and 25.0 and 26.6 and 24.0 and 26.7 and 26.4
[3]; 2000 mg/kg, Day 2
  Average body weight: 26.1 g
  Average body weight, % from baseline: −1%
  decrease of body weight from the initial weight: 1%
  Body weight of individual mice: 27.9 and 25.5 and 26.5 and 25.2 and 27.3 and 27.0
[3]; 2000 mg/kg, Day 7
  Average body weight: 24.7 g
  Average body weight, % from baseline: −6%
  decrease of body weight from the initial weight: 6%
  Body weight of individual mice: 24.7 and 24.5 and 25.1 and 25.6 and 28.2 and 25.7
[3]; 2000 mg/kg, Day 14
  Average body weight: 26.3 g
  Body weight of individual mice: 28.3 and 24.9 and 26.4 and 26.0 and 27.9 and 27.0
[3]; Day 15
  macroscopic changes of internal organs at autopsy: no changes of the internal organs were detected
[3]; OECD 423
  hazard category: 5th or unclassified category and 5th or non-classified category
[3]; OECD 423, listed as anti-cancer agent
  hazard category: 5th hazard category
[3]; female, FVB transgenic for HER-2/neu, mouse, in vivo, po, oral (i.g.), mice, OECD 423
  LD50 at 14 days: ≥ 5000 mg/kg
[3]; oral (i.g.), mice, OECD 423, listed as anti-cancer agent
  LD50: > 5000 mg/kg
[4]
  growth of human skin fibroblasts: does not influence the growth
